According to US10328030B2, “Compositions and methods of use for treatment of mammalian diseases” (priority 2004, dated 2019):

Assays:
NCI-H23 lung cells = assay: In vitro human tumor screen, 3H-thymidine assay; type: cell-based; conditions: positive control, doxorubicin 1 μM
[1] = Metabolic clearance and tolerability of iron dextran, intravenous infusion; parameters: species or system cynomolgus monkeys (Macaca fascicularis); conditions: cynomolgus monkey, in vivo
Experimental: Experiments on metabolic clearance rates done on cynomolgus monkeys (species Macaca fascicularis) have shown the safe use of large dosages of elemental iron derived from iron dextran. […] The administered iron dextran remained in the monkey plasma for at least 120 hours, at milligram levels. […] (See, U.S. application Ser. No. 10/888,576 incorporated herein in its entirety.) The monkey model clears the iron dextran from the system much more very rapidly, as compared to humans, because of a higher metabolic rate. Therefore, a longer plasma residence time is anticipated in humans, as has been shown in research, such as, for example, Henderson & Hillman, (1969).
Experiments on metabolic clearance rates done on cynomolgus monkeys (species Macaca fascicularis) have shown the safe use of large dosages of elemental iron derived from iron dextran. […] The monkey model clears the iron dextran from the system much more very rapidly, as compared to humans, because of a higher metabolic rate. Therefore, a longer plasma residence time is anticipated in humans, as has been shown in research, such as, for example, Henderson & Hillman, (1969).

[2] = in vivo; cited from earlier work

Compound: COc1cccc2c1C(=O)c1c(O)c3c(c(O)c1C2=O)C[C@@](O)(C(=O)CO)C[C@@H]3O[C@H]1C[C@H](N)[C@H](O)[C@H](C)O1 [doxorubicin]
- inhibitory effect (in words) (NCI-H23 lung cells): high inhibitory effect

Compound: iron dextran [Base Compound]
- side effects (in words) [1]: few negative side effects, i.e. abdominal swelling
- time remaining in plasma ([1]; iv): at least 120 hours
- clearance rate [2]: 10 to 20 mg/h
- time to clearance [2]: ≤ 3 days
